Test results as given in US12234221B2, “Pyridine carboxamide compounds for inhibiting NAV1.8” (Lieber Institute, Inc., priority 2018, dated 2025).

Target: T1, human Nav1.8 (hNav1.8) ion channel (Homo sapiens, UniProt Q9Y5Y9)
T1 construct: expressed in transfected cells; host or cells: HEK293
Test: Nav1.8 channel inhibition, estimated IC50 (one or more of: fluorescence inhibition assay, PatchXpress, IonFlux HT automated patch clamp)
Assay type: cell-based
Settings: HEK293 cells stably expressing hNav1.8; method used per compound not stated; read-out: Activity range (estimated IC50)
Experimental: The ability of pyridine carboxamide derivatives exemplified above to inhibit the Nav1.8 channel was determined using one or more of the methods described below.
HEK Nav1.8 β1/β2 Stably Expressing Cell Line
A HEK293 cell line stably expressing the human Nav1.8 (hNav1.8) ion channel with β1/β2 subunits was constructed. The cell line is suitable for IC50 determination in fluorescence and electrophysiological based assays. It is also suitable to form mechanism of action pharmacology studies in electrophysiological assays. HEK293 Nav 1.8 cells are grown as adherent monolayers in DMEM/high glucose media, 10% fetal bovine serum, Na pyruvate (2 mM), Hepes (10 mM) with selection agents G418 (400 mg/L) and puromycin (0.5 mg/L) at 37 degrees C., 10% CO2.
Nav 1.8 Fluorescence Inhibition Assay
Compounds were made up to or supplied as a 10-mM stock solution using DMSO as the vehicle. Concentration-response curves were generated using a Matrix multichannel pipettor. Compound source plates were made by diluting 10 mM compound stocks to create 500 μM (100×) solutions in DMSO in 96-well v-bottom plates. Compounds were then serially diluted in 100% DMSO to generate a 5 point, 4-fold dilution scheme dose response curve. 2 μL of the 100× dose response curves was then added to preincubation and stimulation assay plates. 100 μL of pre-incubation buffer and 200 μL of stimulation buffer were then added to the plates resulting in a final assay test concentration range of 5 μM to 0.02 μM with a final DMSO concentration of 1%.
On the day of assay, plates were washed to remove cell culture media using 2K EBSS buffer (135 mM NaCl, 2 mM KCl, 5 mM Glucose, 2 mM CaCl2), 1 mM MgCl2, 10 mM HEPES, pH 7.4). The Na-sensitive fluorescent dye, Asante Natrium Green-2 (ANG-2) is incubated for 60 min to allow equilibration and then washed with 2K EBSS. Plates are the transferred to a fluorescence plate reader (FLIPR™, Molecular Devices) for fluorescence measurement using an excitation wavelength of 490 nm and an emission wavelength of 565 nm. Compounds are pre-incubated at for 5 min at final test concentration in the presence of ouabain (30 μM) to inhibit Na+ efflux through Na+/K+ exchanger. Following the pre-incubation phase, hNav1.8 channels are stimulated with 10 μM of the pyrethroid deltamethrin to prevent channel inactivation. The assay was run for 15 min with vehicle and 30 μM tetracaine serving as negative and positive controls, respectively. The peak change in fluorescence relative to negative and positive control wells was calculated and fit with a logistic equation to determine IC50.
PatchXpress Nav 1.8 Inhibition Assay
HEK-Nav1.8 β1/β2 cells were recorded in whole cell patch-clamp using the PatchXpress automated patch clamp platforms (Molecular Devices). Cells suspensions were obtained by trypsinization of adherent monolayers, followed by gentle rocking for minimally 30 min. Compounds were prepared from 10 mM DMSO stocks.
Nav1.8 channel variants were evaluated using Protocol 1 (FIG. 2) in which cells were initially voltage clamped at a holding potential of −100 mV to maintain Nav1.8 in a closed resting state. After current amplitude becomes stable, the mid-point voltage of steady state inactivation was determined for each cell using a series of 5 sec conditioning steps to increasingly depolarized voltages (−100 to 0 mV) The holding potential was then reset to a voltage that produces ˜50% inactivation (Vhalf−set automatically via PatchXpress scripts) so that closed and inactivated channel inhibition can be assessed. Protocol 1 was run at a frequency of 0.1 Hz until current amplitude is steady (automatically determined by PatchXpress scripts). The effect of test reagent on Nav current amplitude was monitored using custom PatchXpress stability scripts which determines the timing of compound addition and washout. Data were processed and analyzed using DataXpress 2.0 (Molecular Devices). […]

T1 sequence (Q9Y5Y9 whole entry): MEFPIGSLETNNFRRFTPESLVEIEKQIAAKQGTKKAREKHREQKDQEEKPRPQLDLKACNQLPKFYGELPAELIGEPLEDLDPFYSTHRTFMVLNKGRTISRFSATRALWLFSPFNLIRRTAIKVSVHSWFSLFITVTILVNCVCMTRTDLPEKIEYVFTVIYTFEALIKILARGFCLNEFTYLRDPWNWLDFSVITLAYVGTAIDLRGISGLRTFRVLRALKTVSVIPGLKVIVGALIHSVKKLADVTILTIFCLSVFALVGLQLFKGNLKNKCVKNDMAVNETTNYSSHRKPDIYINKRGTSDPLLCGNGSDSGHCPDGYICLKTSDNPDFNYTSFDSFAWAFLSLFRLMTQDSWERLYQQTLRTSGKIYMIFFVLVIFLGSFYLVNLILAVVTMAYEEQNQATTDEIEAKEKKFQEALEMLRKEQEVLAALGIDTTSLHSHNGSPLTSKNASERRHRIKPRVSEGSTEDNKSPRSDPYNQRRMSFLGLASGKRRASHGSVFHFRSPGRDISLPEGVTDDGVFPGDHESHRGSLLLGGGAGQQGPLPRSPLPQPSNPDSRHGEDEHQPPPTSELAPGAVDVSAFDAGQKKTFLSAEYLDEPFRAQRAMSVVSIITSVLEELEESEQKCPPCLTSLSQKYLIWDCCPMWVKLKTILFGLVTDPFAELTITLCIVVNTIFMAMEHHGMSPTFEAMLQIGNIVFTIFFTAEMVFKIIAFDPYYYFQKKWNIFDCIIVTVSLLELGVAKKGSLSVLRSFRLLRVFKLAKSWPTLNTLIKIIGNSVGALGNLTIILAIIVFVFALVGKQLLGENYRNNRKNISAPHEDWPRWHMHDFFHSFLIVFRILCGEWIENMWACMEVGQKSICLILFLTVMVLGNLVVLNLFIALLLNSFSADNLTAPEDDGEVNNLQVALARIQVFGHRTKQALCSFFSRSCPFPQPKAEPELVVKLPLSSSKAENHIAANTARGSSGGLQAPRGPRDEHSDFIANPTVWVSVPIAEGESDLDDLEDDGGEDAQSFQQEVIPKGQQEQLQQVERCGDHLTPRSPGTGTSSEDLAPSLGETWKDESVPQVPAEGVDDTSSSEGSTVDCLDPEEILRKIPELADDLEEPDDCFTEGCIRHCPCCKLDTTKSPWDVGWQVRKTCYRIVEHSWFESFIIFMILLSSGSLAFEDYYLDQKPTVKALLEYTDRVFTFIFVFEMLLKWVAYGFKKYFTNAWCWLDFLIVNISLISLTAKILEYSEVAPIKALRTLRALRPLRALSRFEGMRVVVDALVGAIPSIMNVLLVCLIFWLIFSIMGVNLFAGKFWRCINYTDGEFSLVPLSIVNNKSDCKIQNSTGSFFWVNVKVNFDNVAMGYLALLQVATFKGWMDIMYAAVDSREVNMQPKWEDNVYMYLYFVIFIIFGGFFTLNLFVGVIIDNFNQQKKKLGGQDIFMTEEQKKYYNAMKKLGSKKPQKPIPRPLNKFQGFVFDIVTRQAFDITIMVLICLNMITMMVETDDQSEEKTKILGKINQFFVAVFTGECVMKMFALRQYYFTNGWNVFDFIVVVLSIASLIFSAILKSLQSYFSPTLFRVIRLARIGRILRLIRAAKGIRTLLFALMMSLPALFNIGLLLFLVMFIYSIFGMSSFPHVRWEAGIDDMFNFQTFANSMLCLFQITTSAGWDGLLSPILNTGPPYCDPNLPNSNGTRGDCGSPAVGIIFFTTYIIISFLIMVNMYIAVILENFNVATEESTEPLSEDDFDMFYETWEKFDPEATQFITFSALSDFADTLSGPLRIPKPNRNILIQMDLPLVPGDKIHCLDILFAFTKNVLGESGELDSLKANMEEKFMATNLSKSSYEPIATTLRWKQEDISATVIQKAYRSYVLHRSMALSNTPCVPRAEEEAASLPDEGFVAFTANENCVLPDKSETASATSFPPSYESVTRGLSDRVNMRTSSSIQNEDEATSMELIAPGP

SMILES | IC50 [µM]
COc1cc(F)ccc1Oc1ncc(C(F)(F)F)cc1C(=O)Nc1cccc(S(=O)(=O)N(C)C)c1 [Example 10, N-[3-(dimethylsulfamoyl)phenyl]-2-(4-fluoro-2-methoxy-phenoxy)-5-(trifluoromethyl)pyridine-3-carboxamide] | < 0.5
Cc1cc(F)ccc1Oc1ncc(C(F)(F)F)cc1C(=O)Nc1ccnnc1 [Example 116, 2-(4-fluoro-2-methyl-phenoxy)-N-pyridazin-4-yl-5-(trifluoromethyl)pyridine-3-carboxamide] | > 1
CN=S(C)(=O)c1cccc(NC(=O)c2cnc(C(F)(F)F)cc2Oc2ccc(F)cc2C)c1 (centres unmarked) [Example 94, N-[3-(N,S-dimethylsulfonimidoyl)phenyl]-4-(4-fluoro-2-methyl-phenoxy)-6-(trifluoromethyl)pyridine-3-carboxamide] | < 0.5
O=C(Nc1ccnnc1)c1cnc(C(F)(F)F)cc1Oc1ccc(OC(F)(F)F)cc1 [Example 96, N-pyridazin-4-yl-4-[4-(trifluoromethoxy)phenoxy]-6-(trifluoromethyl)pyridine-3-carboxamide] | 0.5 to 1
COc1cc(F)ccc1Oc1cc(C(F)(F)F)ncc1C(=O)Nc1ccncc1 [Example 72, 4-(4-fluoro-2-methoxy-phenoxy)-N-(4-pyridyl)-6-(trifluoromethyl)pyridine-3-carboxamide] | < 0.5
COc1ccc(Oc2ncc(C(F)(F)F)cc2C(=O)Nc2cccc(S(C)(=N)=O)c2)c(OC)c1 (centres unmarked) [Example 172, 2-(2,4-dimethoxyphenoxy)-N-[3(methylsulfonimidoyl)phenyl]-5-(trifluoromethyl)pyridine-3-carboxamide] | < 0.5
COc1cc(F)ccc1Oc1ncc(C(F)(F)F)cc1C(=O)Nc1cccc(-c2cnco2)c1 [Example 9, 2-(4-fluoro-2-methoxy-phenoxy)-N-(3-oxazol-5-ylphenyl)-5-(trifluoromethyl)pyridine-3-carboxamide] | > 1
COc1cc(F)ccc1Oc1ncc(C(F)(F)F)cc1C(=O)Nc1ccc[n+]([O-])c1 [Example 134, 2-(4-fluoro-2-methoxy-phenoxy)-N-(1-oxidopyridin-1-ium-3-yl)-5-(trifluoromethyl)pyridine-3-carboxamide] | > 1
COc1cc(F)ccc1Oc1nc(C)c(C#N)cc1C(=O)Nc1cccc(S(C)(=O)=O)c1 [Example 177, 5-cyano-2-(4-fluoro-2-methoxy-phenoxy)-6-methyl-N-(3-methylsulfonylphenyl)pyridine-3-carboxamide] | 0.5 to 1
O=C(Nc1ccc[n+]([O-])c1)c1cc(C(F)(F)F)cnc1Oc1ccc(F)cc1F [Example 135, 2-(2,4-difluorophenoxy)-N-(1-oxidopyridin-1-ium-3-yl)-5-(trifluoromethyl)pyridine-3-carboxamide] | > 1
CN=S(C)(=O)c1cccc(NC(=O)c2cc(C(F)(F)F)cnc2Oc2ccc(OC)cc2OC)c1 (centres unmarked) [Example 171, 2-(2,4-dimethoxyphenoxy)-N-[3-(N,S-dimethylsulfonimidoyl)phenyl]-5-(trifluoromethyl)pyridine-3-carboxamide] | < 0.5
COc1cc(F)ccc1Oc1ncc(C(F)(F)F)cc1C(=O)Nc1ccncc1 [Example 6, 2-(4-fluoro-2-methoxy-phenoxy)-N-(4-pyridyl)-5-(trifluoromethyl)pyridine-3-carboxamide] | 0.5 to 1

Other lines, results leading:

IC50 [µM] | SMILES
> 1 | CS(=O)(=O)c1cccc(NC(=O)c2cc(C(F)(F)F)cnc2Oc2ccc(C(F)(F)F)nc2)c1 [Example 57, N-(3-methylsulfonyl-phenyl)-5-(trifluoromethyl)-2-[[6-(trifluoromethyl)-3-pyridyl]oxy]pyridine-3-carboxamide]
> 1 | Cc1ccc(Oc2ncc(C(F)(F)F)cc2C(=O)Nc2cccc(S(C)(=O)=O)c2)c(C)c1 [Example 22, 2-(2,4-dimethylphenoxy)-N-(3-methylsulfonylphenyl)-5-(trifluoromethyl)pyridine-3-carboxamide]
< 0.5 | CS(=O)(=O)c1cccc(NC(=O)c2cc(C(F)(F)F)cnc2Oc2ccc(Cl)cc2Cl)c1 [Example 21, 2-(2,4-dichlorophenoxy)-N-(3-methylsulfonylphenyl)-5-(trifluoromethyl)pyridine-3-carboxamide]
> 1 | CS(=O)(=O)c1cccc(NC(=O)c2cc(C(F)(F)F)cnc2Oc2cc(F)cc(F)c2)c1 [Example 49, 2-(3,5-difluorophenoxy)-N-(3-methylsulfonyl-phenyl)-5-(trifluoromethyl)pyridine-3-carboxamide]
> 1 | COc1cc(F)ccc1Oc1ncc(C(F)(F)F)cc1C(=O)Nc1cccc(S(=O)(=O)C(F)(F)F)c1 [Example 13, 2-(4-fluoro-2-methoxy-phenoxy)-5-(trifluoromethyl)-N-[3-(trifluoromethylsulfonyl)phenyl]pyridine-3-carboxamide]
< 0.5 | CS(=N)(=O)c1cccc(NC(=O)c2cc(C(F)(F)F)cnc2Oc2ccc(OC(F)(F)F)cc2)c1 (single isomer, unassigned) [Example 130, N-[3-(methylsulfonimidoyl)phenyl]-2-[4-(trifluoromethoxy)phenoxy]-5-(trifluoromethyl)pyridine-3-carboxamide]
< 0.5 | CS(=N)(=O)c1cccc(NC(=O)c2cc(C(F)(F)F)cnc2Oc2ccccc2Cl)c1 (centres unmarked) [Example 62, 2-(2-chlorophenoxy)-N-[3-(methylsulfonimidoyl)phenyl]-5-(trifluoromethyl)pyridine-3-carboxamide]
< 0.5 | O=C(Nc1cccc(CO)c1)c1cc(C(F)(F)F)cnc1Oc1ccc(OC(F)(F)F)cc1Cl [Example 160, 2-[2-chloro-4-(trifluoromethoxy)phenoxy]-N-[3-(hydroxymethyl)phenyl]-5-(trifluoromethyl)pyridine-3-carboxamide]
> 1 | O=C(Nc1cccc(F)c1)c1cc(C(F)(F)F)cnc1Oc1ccc(OC(F)(F)F)cc1Cl [Example 163, 2-[2-chloro-4-(trifluoromethoxy)phenoxy]-N-(3-fluorophenyl)-5-(trifluoromethyl)pyridine-3-carboxamide]
< 0.5 | CS(=O)(=O)c1cccc(NC(=O)c2cc(C(F)(F)F)cnc2Oc2ccc(OCC(F)(F)F)cc2)c1 [Example 50, N-(3-methylsulfonyl-phenyl)-2-[4-(2,2,2-trifluoroethoxy)phenoxy]-5-(trifluoromethyl)pyridine-3-carboxamide]
< 0.5 | O=C(Nc1ccc(F)c(F)c1)c1cc(C(F)(F)F)cnc1Oc1ccc(OC(F)(F)F)cc1Cl [Example 155, 2-[2-chloro-4-(trifluoromethoxy)phenoxy]-N-(3,4-difluorophenyl)-5-(trifluoromethyl)pyridine-3-carboxamide]
< 0.5 | CS(=O)(=O)c1ccc(F)c(NC(=O)c2cc(C(F)(F)F)cnc2Oc2ccc(OC(F)(F)F)cc2Cl)c1 [Example 162, 2-[2-chloro-4-(trifluoromethoxy)phenoxy]-N-(2-fluoro-5-methylsulfonyl-phenyl)-5-(trifluoromethyl)pyridine-3-carboxamide]
< 0.5 | O=C(Nc1ccnnc1)c1cnc(C(F)(F)F)cc1Oc1ccc(OC(F)(F)F)cc1Cl [Example 98, 4-[2-chloro-4-(trifluoromethoxy)phenoxy]-N-pyridazin-4-yl-6-(trifluoromethyl)pyridine-3-carboxamide]
> 1 | COc1cc(C)ccc1Oc1ncc(C(F)(F)F)cc1C(=O)Nc1cccc(S(C)(=O)=O)c1 [Example 25, 2-(2-methoxy-4-methyl-phenoxy)-N-(3-methylsulfonylphenyl)-5-(trifluoromethyl)pyridine-3-carboxamide]
